Data: PubChem BioAssay (NCI)
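Growth conditions: 96-well plates. Treatment: test compound, 48 hours, 5 concentrations. Analysis: linear interpolation between bracketing concentrations; unreached endpoints set to highest concentration. Here, GI50 denotes the concentration required for 50% inhibition of growth. Definition used: TGI = concentration required for complete inhibition of growth.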

How the values were obtained:
Experiment in all cases: growth of human tumour cells (NCI), 48 h
786-0 renal = tested on: 786-0 renal
A498 renal = tested on: A498 renal
A549 NSCLC = tested on: A549 NSCLC
ACHN renal = tested on: ACHN renal
BT-549 breast = tested on: BT-549 breast
CAKI-1 renal = tested on: CAKI-1 renal
CCRF-CEM leukemia = tested on: CCRF-CEM leukemia
COLO 205 colon = tested on: COLO 205 colon
DU-145 prostate = tested on: DU-145 prostate
EKVX NSCLC = tested on: EKVX NSCLC
HCC-2998 colon = tested on: HCC-2998 colon
HCT-116 colon = tested on: HCT-116 colon
HCT-15 colon = tested on: HCT-15 colon
HL-60(TB) leukemia = tested on: HL-60(TB) leukemia
HOP-62 NSCLC = tested on: HOP-62 NSCLC
HOP-92 NSCLC = tested on: HOP-92 NSCLC
HS 578T breast = tested on: HS 578T breast
HT29 colon = tested on: HT29 colon
IGROV1 ovarian = tested on: IGROV1 ovarian
K-562 leukemia = tested on: K-562 leukemia
KM12 colon = tested on: KM12 colon
LOX IMVI melanoma = tested on: LOX IMVI melanoma
M14 melanoma = tested on: M14 melanoma
MALME-3M melanoma = tested on: MALME-3M melanoma
MCF7 breast = tested on: MCF7 breast
MDA-MB-231 breast = tested on: MDA-MB-231 breast
MDA-MB-435 = tested on: MDA-MB-435
MOLT-4 leukemia = tested on: MOLT-4 leukemia
NCI-H226 lung = tested on: NCI-H226 lung
NCI-H23 lung = tested on: NCI-H23 lung
NCI-H460 lung = tested on: NCI-H460 lung
NCI-H522 lung = tested on: NCI-H522 lung
NCI/ADR-RES ovarian = tested on: NCI/ADR-RES ovarian
OVCAR-3 ovarian = tested on: OVCAR-3 ovarian
OVCAR-4 ovarian = tested on: OVCAR-4 ovarian
OVCAR-5 ovarian = tested on: OVCAR-5 ovarian
OVCAR-8 ovarian = tested on: OVCAR-8 ovarian
PC-3 prostate = tested on: PC-3 prostate
RPMI-8226 leukemia = tested on: RPMI-8226 leukemia
RXF 393 renal = tested on: RXF 393 renal
SF-268 CNS = tested on: SF-268 CNS
SF-295 CNS = tested on: SF-295 CNS
SF-539 CNS = tested on: SF-539 CNS
SK-MEL-2 melanoma = tested on: SK-MEL-2 melanoma
SK-MEL-28 melanoma = tested on: SK-MEL-28 melanoma
SK-MEL-5 melanoma = tested on: SK-MEL-5 melanoma
SK-OV-3 ovarian = tested on: SK-OV-3 ovarian
SN12C renal = tested on: SN12C renal
SNB-19 CNS = tested on: SNB-19 CNS
SNB-75 CNS = tested on: SNB-75 CNS
SR leukemia = tested on: SR leukemia
SW-620 colon = tested on: SW-620 colon
T-47D breast = tested on: T-47D breast
TK-10 renal = tested on: TK-10 renal
U251 CNS = tested on: U251 CNS
UACC-257 melanoma = tested on: UACC-257 melanoma
UACC-62 melanoma = tested on: UACC-62 melanoma
UO-31 renal = tested on: UO-31 renal

CS(=O)(=O)Nc1cc(-c2ccc3ncc(C#N)c(NCc4ccccc4)c3c2)cnc1Cl
GI50 (786-0 renal): 350 nM | TGI (786-0 renal): > 45400 nM | GI50 (A498 renal): 101 nM | TGI (A498 renal): 498 nM | GI50 (A549 NSCLC): 500 nM | TGI (A549 NSCLC): 7740 nM | GI50 (ACHN renal): 434 nM | TGI (ACHN renal): > 46300 nM | GI50 (BT-549 breast): 155 nM | TGI (BT-549 breast): 2040 nM | GI50 (CAKI-1 renal): 186 nM | TGI (CAKI-1 renal): 2370 nM | GI50 (CCRF-CEM leukemia): 117 nM | TGI (CCRF-CEM leukemia): 15200 nM | GI50 (COLO 205 colon): 353 nM | TGI (COLO 205 colon): 2870 nM | GI50 (DU-145 prostate): 322 nM | TGI (DU-145 prostate): 19200 nM | GI50 (EKVX NSCLC): 340 nM | TGI (EKVX NSCLC): 3860 nM | GI50 (HCC-2998 colon): 325 nM | TGI (HCC-2998 colon): 6420 nM | GI50 (HCT-116 colon): 334 nM | TGI (HCT-116 colon): 4360 nM | GI50 (HCT-15 colon): 268 nM | TGI (HCT-15 colon): 11400 nM | GI50 (HL-60(TB) leukemia): 294 nM | TGI (HL-60(TB) leukemia): 7520 nM | GI50 (HOP-62 NSCLC): 270 nM | TGI (HOP-62 NSCLC): 9120 nM | GI50 (HOP-92 NSCLC): 33.7 nM | TGI (HOP-92 NSCLC): 399 nM | GI50 (HS 578T breast): 65 nM | TGI (HS 578T breast): 521 nM | GI50 (HT29 colon): 463 nM | TGI (HT29 colon): 25000 nM | GI50 (IGROV1 ovarian): 89.6 nM | TGI (IGROV1 ovarian): 667 nM | GI50 (K-562 leukemia): 311 nM | TGI (K-562 leukemia): > 100000 nM | GI50 (KM12 colon): 431 nM | TGI (KM12 colon): 4980 nM | GI50 (LOX IMVI melanoma): 214 nM | TGI (LOX IMVI melanoma): 1110 nM | GI50 (M14 melanoma): 178 nM | TGI (M14 melanoma): 10800 nM | GI50 (MALME-3M melanoma): 79 nM | TGI (MALME-3M melanoma): 626 nM | GI50 (MCF7 breast): 63.7 nM | TGI (MCF7 breast): 3750 nM | GI50 (MDA-MB-231 breast): 331 nM | TGI (MDA-MB-231 breast): 6370 nM | GI50 (MDA-MB-435): 299 nM | TGI (MDA-MB-435): 8270 nM | GI50 (MOLT-4 leukemia): 177 nM | TGI (MOLT-4 leukemia): 3940 nM | GI50 (NCI-H226 lung): 347 nM | TGI (NCI-H226 lung): 18000 nM | GI50 (NCI-H23 lung): 291 nM | TGI (NCI-H23 lung): 15600 nM | GI50 (NCI-H460 lung): 371 nM | TGI (NCI-H460 lung): > 100000 nM | GI50 (NCI-H522 lung): 281 nM | TGI (NCI-H522 lung): 13900 nM | GI50 (NCI/ADR-RES ovarian): 1700 nM | TGI (NCI/ADR-RES ovarian): 28900 nM | GI50 (OVCAR-3 ovarian): 254 nM | TGI (OVCAR-3 ovarian): 2790 nM | GI50 (OVCAR-4 ovarian): 325 nM | TGI (OVCAR-4 ovarian): > 42700 nM | GI50 (OVCAR-5 ovarian): 440 nM | TGI (OVCAR-5 ovarian): 21100 nM | GI50 (OVCAR-8 ovarian): 364 nM | TGI (OVCAR-8 ovarian): > 39400 nM | GI50 (PC-3 prostate): 158 nM | TGI (PC-3 prostate): 2750 nM | GI50 (RPMI-8226 leukemia): 212 nM | TGI (RPMI-8226 leukemia): 1070 nM | GI50 (RXF 393 renal): 38.4 nM | TGI (RXF 393 renal): 435 nM | GI50 (SF-268 CNS): 197 nM | TGI (SF-268 CNS): 5220 nM | GI50 (SF-295 CNS): 192 nM | TGI (SF-295 CNS): 1740 nM | GI50 (SF-539 CNS): 205 nM | TGI (SF-539 CNS): 1700 nM | GI50 (SK-MEL-2 melanoma): 195 nM | TGI (SK-MEL-2 melanoma): 975 nM | GI50 (SK-MEL-28 melanoma): 175 nM | TGI (SK-MEL-28 melanoma): 10200 nM | GI50 (SK-MEL-5 melanoma): 146 nM | TGI (SK-MEL-5 melanoma): 344 nM | GI50 (SK-OV-3 ovarian): 259 nM | TGI (SK-OV-3 ovarian): 1610 nM | GI50 (SN12C renal): 233 nM | TGI (SN12C renal): > 49500 nM | GI50 (SNB-19 CNS): 268 nM | TGI (SNB-19 CNS): 11600 nM | GI50 (SNB-75 CNS): 38.2 nM | TGI (SNB-75 CNS): 334 nM | GI50 (SR leukemia): 164 nM | TGI (SR leukemia): 7910 nM | GI50 (SW-620 colon): 351 nM | TGI (SW-620 colon): > 36100 nM | GI50 (T-47D breast): 52.1 nM | TGI (T-47D breast): 2670 nM | GI50 (TK-10 renal): 190 nM | TGI (TK-10 renal): 1970 nM | GI50 (U251 CNS): 218 nM | TGI (U251 CNS): 12700 nM | GI50 (UACC-257 melanoma): 327 nM | TGI (UACC-257 melanoma): 6320 nM | GI50 (UACC-62 melanoma): 76.4 nM | TGI (UACC-62 melanoma): 815 nM | GI50 (UO-31 renal): 111 nM | TGI (UO-31 renal): 3170 nM
